Among the data in the supplement of paper PMC4862054 are normalised response and normalised viability values, retold here.

Several values for one entry are separate records, joined by “and”; a condition that tells them apart may be missing. Identical values can stand only once.

Holding throughout (details): incubation time: 72 h
Assay [1] has as its system HCC1599. Briefly: normalised response (% of control), CellTiter-Glo; higher = more viable cells (100 = DMSO, 0 = benzethonium chloride kill control). The method, boiled down: (§1)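 Two readouts were taken after 72 h: CellTox Green fluorescence (485/520 nm) first, then CellTiter-Glo luminescence after 10 min at room temperature. Breast cancer cell lines had been seeded as 20 µl suspension into 384-well plates holding compound at 5 concentrations in 10-fold steps across a compound-specific 10,000-fold range. Each value is a normalised signal at a single concentration, with plates scaled to 0.1 % DMSO (100) and a positive kill control (0).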
(In general: Cellular ATP, detected with luciferase, serves as a proxy for viable cell number.)

Assay [2] deals with BT-549. The description is as above. The gist of the method: as §1
For assay [3], the system named is MDA-MB-453. The assay is described as above. The gist of the method: as §1
Assay [4] concerns MFM-223. Described as above. The gist of the method: as §1
In assay [5] the test system is BT-474. The description is as above. The method, boiled down:
as §1

Assay [6] relates to MCF-10A. Described as above. The method, boiled down:
as §1

For assay [7], the system named is SK-BR-3. Described as above. The gist of the method: as §1
The test system of assay [8] is MDA-MB-231. Described as above. The method, boiled down: as §1
Assay [9] relates to CAL-120. The description is as above. The method, boiled down: as §1
Assay [10] concerns HDQ-P1. Described as above. The gist of the method: as §1
Assay [11] concerns CAL-51. Described as above. The gist of the method: as §1
Assay [12] has as its system MDA-MB-453. Description: normalised viability (% of control), CellTiter-Blue; higher = more viable cells (about 100 = DMSO control). The procedure: (§2)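 DSRT, CellTiter-Blue viability, 72 h incubation. Signal is normalised to DMSO and benzethonium chloride controls. Value is the normalised response at dose 9.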
For orientation: Alamar Blue is a resazurin reagent that responds to reducing activity.

The subject of assay [13] is CAL-148. The description is as above. The method, then:
as §2

For assay [14], the system named is DU-4475. The description is as above. The method, then: as §2
Assay [15] has as its system HDQ-P1. Described as above. The procedure: as §2
The subject of assay [16] is CAL-51. The assay is described as above. The procedure: as §2
For assay [17], the system named is CAL-85-1. The description is as above. The method, then:
as §2

The subject of assay [18] is MDA-MB-453. Described as above. The procedure:
(§3)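 DSRT, CellTiter-Blue viability, 72 h incubation. Signal is normalised to DMSO and benzethonium chloride controls. Value is the normalised response at dose 7.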
The source holds these as a separate data set.

In assay [19] the test system is CAL-148. The assay is described as above. The procedure: as §3
The source holds these as a separate data set.

In assay [20] the test system is DU-4475. Described as above. The procedure:
as §3
The source holds these as a separate data set.

The subject of assay [21] is HDQ-P1. The description is as above. The method, then: as §3
The source holds these as a separate data set.

Assay [22] has as its system CAL-51. The description is as above. The procedure:
as §3
The source holds these as a separate data set.

Assay [23] deals with CAL-85-1. The assay is described as above. The procedure: as §3
The source holds these as a separate data set.

As to `COc1ccc(-c2cc3c(C)nc(N)nc3n([C@H]3CC[C@H](OCCO)CC3)c2=O)cn1` (10000 nM), the normalised response in assay [1] worked out at 44%; in assay [2] it was 8.65%; in [3] it was 3.84%; in [4], 13%; in assay [5], 23.9%; in assay [6], 7.97%. In addition, the normalised response in [7] worked out at 18.6%; in assay [8], 9.59%; in assay [9], 26.1%; in [10] it was 10.8%; in [11], 0.68%. In addition, the normalised viability was determined as 2.5% in [12]; 1.46% in [13]; 0.68% in assay [14]; 5.55% in assay [15]; 2.53% in [16]; 5.23% in [17].

Take `O=C(Nc1c[nH]nc1-c1nc2ccc(CN3CCOCC3)cc2[nH]1)NC1CC1` [AT9283] (1000 nM): the normalised viability in [18] turned out to be 42%; in [19], 67.3%; in assay [20] it was 10.3%; in [21], 50.3%; in assay [22] it was 51.3%; in assay [23], 55.4%. Moreover, the normalised response worked out at 74.4% in assay [1]; 27.8% in assay [2]; 185% in [3]; 75.5% in [4]; 58.6% in [5]; 46.2% in assay [6]. In addition, the normalised response in assay [7] stood at 70.8%; in assay [8] it was 42.4%; in assay [9], 46.9%; in assay [10] it was 50.8%; in assay [11] it was 83%.

Regarding `COc1cc(CCc2cc(NC(=O)c3ccc(N4CC(C)NC(C)C4)cc3)n[nH]2)cc(OC)c1` (stereo unspecified) [AZD4547] (1000 nM), the normalised response in [1] is 80.9%; in [2] it was 88.7%; in [3], 85%; in assay [4], 53.3%; in assay [5] it was 99.6%; in assay [6], 74.9%. Further, the normalised response was 89.6% in [7]; 103% in assay [8]; 68.2% in assay [9]; 93.7% in assay [10]; 108% in assay [11]. For the same molecule, the normalised viability in [12] was found to be 8.97%; in assay [13] it was 11.9%; in assay [14], 0.72%; in assay [15] it was 123%; in assay [16], 3.02%; in [17], 2.48%.

For `CCC/C=C/C=C/C(=O)O[C@H]1/C(=C/C(=O)OC)C[C@H]2C[C@H]([C@@H](C)O)OC(=O)C[C@H](O)C[C@@H]3C[C@H](OC(C)=O)C(C)(C)[C@](O)(C[C@@H]4C/C(=C/C(=O)OC)C[C@H](/C=C/C(C)(C)[C@]1(O)O2)O4)O3` [Bryostatin 1] (100 nM), the normalised response in assay [1] came out at 86.4%; in [2], 87.9%; in assay [3], 103%; in assay [4], 104%; in [5], 81.2%; in assay [6] it was 95.7%. Besides, the normalised response in [7] came to 73.6%; in assay [8], 93.1%; in [9], 104%; in assay [10] it was 81.5%; in [11] it was 96.5%. The normalised viability in assay [12] is 102%; in assay [13], 67.6%; in assay [14], 77.3%; in [15] it was 104%; in assay [16], 109%; in assay [17] it was 99.2%.

For `CO[C@@H](C(=O)N1Cc2[nH]nc(NC(=O)c3ccc(N4CCN(C)CC4)cc3)c2C1)c1ccccc1` [Danusertib] (10000 nM), the normalised response was determined as 78.5% in assay [1]; 14.7% in assay [2]; 95% in assay [3]; 45.6% in [4]; 55.5% in [5]; 17% in assay [6]. In addition, the normalised response in assay [7] stood at 85.6%; in assay [8] it was 42.7%; in [9], 22.1%; in assay [10], 44.2%; in assay [11], 31.1%. Further, the normalised viability in [12] stood at 31.3%; in assay [13], 69.4%; in assay [14], 13.9%; in [15] it was 10.4%; in [16], 17.7%; in [17], 32.1%.

In the case of `Cc1nc(Nc2ncc(C(=O)Nc3c(C)cccc3Cl)s2)cc(N2CCN(CCO)CC2)n1` [Dasatinib] (1000 nM), the normalised response in assay [1] came out at 97.7%; in [2], 55.3%; in assay [3], 80.5%; in assay [4], 80.9%; in [5], 45.7%; in assay [6], 24.3%. Moreover, the normalised response in assay [7] stood at 97.1%; in assay [8], 34.1%; in assay [9], 48.6%; in assay [10], 27.1%; in assay [11], 47.9%. Moreover, the normalised viability in [12] was 84.2% and 84.5%; in [13], 112% and 97.6%; in [14], 100% and 110%; in [15] it was 11.7% and 10.7%; in [16], 36.7% and 40.3%; in assay [17] it was 37.7% and 37.6%.

`Cc1c(CN2CCN(C(=O)[C@H](C)O)CC2)sc2c(N3CCOCC3)nc(-c3cnc(N)nc3)nc12` [GDC-0980] (10000 nM): the normalised response in assay [1] stood at 66.2%; in assay [2], 19%; in assay [3], 9.21%; in assay [4], 26.2%; in [5], 47.6%; in assay [6], 17.8%. In addition, the normalised response is 19.2% in assay [7]; 34.3% in assay [8]; 23.2% in assay [9]; 10.6% in assay [10]; 8.48% in assay [11]. Further, the normalised viability in assay [12] turned out to be 3.22%; in assay [13], 3.74%; in assay [14], 9.81%; in assay [15] it was 10.9%; in [16], 3.17%; in assay [17], 15.2%.

`Nc1cccc2c1CN(C1CCC(=O)NC1=O)C2=O` (stereo unspecified) [Lenalidomide] (10000 nM): the normalised response worked out at 103% in assay [1]; 98% in [2]; 102% in [3]; 100% in [4]; 94% in [5]; 102% in [6]. Besides, the normalised response in assay [7] was 98.5%; in [8], 103%; in assay [9], 93.6%; in assay [10] it was 93.6%; in assay [11] it was 114%. In addition, the normalised viability in assay [12] is 94.2% and 92.1%; in [13], 86.1% and 106%; in assay [14] it was 95% and 80.6%; in assay [15], 106% and 110%; in assay [16], 97.1% and 99.6%; in assay [17], 81.6% and 86.1%.
